Measurements reported in US7968526B2, “Antisense oligonucleotides directed to ribonucleotide reductase R2 and uses thereof in the treatment of cancer” (Lorus Therapeutics Inc., priority 2003, dated 2011).
Entries after “also recorded” stand apart in the source; their conditions may differ. [5mC] = 5-methylcytosine

Tests used:
[1] = test system: human Burkitt's lymphoma (Raji) cells; assay: Survival of SCID mice bearing human Burkitt's lymphoma (Raji); assay type: in vivo, human cells in mice; conditions: 10 mg/kg i.v. every second day
Procedure: Mice with established human Burkitt's lymphoma tumours were treated every second day with either saline or SEQ ID NO:1 for 44 days as described above. The control group mice all died from disease progression by day 20. At day 44, the SEQ ID NO:1 mice continued treatment on a weekly basis until stopping the treatment at day 73.
As an additional test of efficacy SEQ ID NO:1 was administered to SCID mice bearing active Burkitt's lymphoma (FIG. 30). Viable human Burkitt's lymphoma (Raji) cells (5×10^6) collected from subconfluent logarithmically growing cultures were injected i.v. into each animal and disease was allowed to establish for 2 days. SEQ ID NO:1, SEQ ID NO:3 and SEQ ID NO:2, in normal saline were administered by tail vein injection every second day at a dose of 10 mg/kg. At day 40 the treatment schedule was reduced to 10 mg/kg every 3 days. Control animals received saline alone, without oligonucleotide. Survival is presented as a percentage of the starting number of mice over time.

[2] = test system: Hep G2 human liver cancer cells; assay: HepG2 liver tumour growth in CD-1 nude mice (3.7); assay type: in vivo, human cells in mice; conditions: Hep G2, CD-1 nude mice; 2.5 mg/kg i.v. every day, 30 days
Procedure: Treatments lasted for 14 days thereafter. Antitumour activities were estimated by the inhibition of tumour volume, which was measured with a caliper on four different occasions over the treatment period. Each point represents mean tumour volume calculated from 5 animals per experimental group. […] Control animals (control) received saline alone for the same period. At the end of the treatments, the animals were sacrificed, tumours were excised and their weights were measured. Each bar represents mean tumour weight calculated from 6 animals per experimental group. […] Treatments lasted for 24 days thereafter. Antitumour activities were estimated by the inhibition of tumour volume, which was measured with a caliper at two-day intervals over the treatment period. Each point represents mean tumour volume calculated from 4 animals per experimental group. […] Treatments lasted for 24 days thereafter. Antitumour activities were estimated by the inhibition of tumour volume, which was measured with a caliper at two-day intervals over the treatment period. Each point represents mean tumour volume calculated from 4 animals per experimental group. […] Treatments lasted for 22 days thereafter. […] Each point represents mean tumour volume calculated from 5 animals per experimental group. […] Treatments lasted for 14 days thereafter. Antitumour activities were estimated by the inhibition of tumour volume, which was measured with a caliper on four different occasions over 16-day period. Each point represents mean tumour volume calculated from 5 animals per experimental group. […] Two different batches of SEQ ID NO:1, synthesized at different times (designated as batch 1 and batch 2), were tested to detect possible batch-specific effects. […] Treatments lasted for 34 days thereafter. Antitumour activities were estimated by the inhibition of tumour volume, which was measured with a caliper at two-day intervals over the treatment period. Each point represents mean tumour volume calculated from 5 animals per experimental group. […] Treatments lasted for 30 days thereafter. Antitumour activities were estimated by the inhibition of tumour volume, which was measured with a caliper at various time intervals over the span of 30 days. Each point represents mean tumour volume calculated from 6 animals per experimental group. […] All treatments were stopped at day 36. Antitumour activities were estimated by the inhibition of tumour volume, which was measured with a caliper. Each point represents mean tumour volume calculated from 5 animals per experimental group. […] All treatments were stopped at day 52. […] Antitumour activities were estimated by the inhibition of tumour volume, which was measured with a caliper.

[3] = test system: C8161 human metastatic melanoma cells; assay: Experimental metastasis assay, C8161 cells, treatment post tumour cell injection; assay type: in vivo, human cells in mice; conditions: C8161 cells i.v. into SCID mice; treatment initiated after 2 days; lungs 5-7 weeks later
Procedure: C8161 human melanoma cells were seeded into 100 mm tissue culture dishes at a density of 2×10^6 and incubated overnight at 37° C. in α-MEM medium supplemented with 10% FBS. The cells were trypsinized, collected by centrifugation and aliquots were removed from the suspension to determine the cell viability using trypan blue exclusion test. […] Treatment was initiated after 2 days. Estimates of the number of lung nodules were made 5-7 weeks later, after excised lungs from individual mice were stained with picric acid dye solution (75% picric acid, 20% formaldehyde, 5% glacial acetic acid).
Murine R3 fibrosarcoma and human C8161 melanoma cells injected into the tail vein of mice form observable lung nodules 2 weeks post-injection. […] To more accurately reflect the clinical situation, mice were treated with SEQ ID NO:1 post tumour cell injection. C8161 human metastatic melanoma cells were seeded into 100 mm tissue culture dishes at a density of 2×10^6 and incubated overnight at 37° C. in α-MEM medium supplemented with 10% FBS. The cells were trypsinized, collected by centrifugation and aliquots were removed from the suspension to determine the cell viability using trypan blue exclusion test. Approximately 1×10^5 cells suspended in 0.1 ml of PBS were injected into the tail veins of 6-8 week old female SCID mice. Treatment was initiated after 2 days. Estimates of the number of lung nodules were made 5-7 weeks later, after excised lungs from individual mice were stained with picric acid dye solution (75% picric acid, 20% formaldehyde, 5% glacial acetic acid). The results are shown in FIG. 31, bars represent the mean number of nodules per mouse with standard error.

[4] = test system: MDA-MB-231 human breast cancer cells; assay: MDA-MB-231 breast tumour xenograft in CD-1 nude mice, combination with taxol or doxorubicin (1.7); assay type: in vivo, human cells in mice; conditions: MDA-MB-231, CD-1 nude mice; oligonucleotides 10 mg/kg i.v. every other day; taxol 10 mg/kg, doxorubicin 5 mg/kg i.v. weekly
Procedure: After 52 days the mice were sacrificed and the tumours weighed. […] Mitoxantrone was administered intravenously once at the beginning of the treatments at a dose of 2 mg/kg (FIG. 4A) or once a week for four weeks at a reduced dose of 0.8 mg/kg (FIG. 4B). All treatments were stopped at day 50 (FIG. 4A) or 48 (FIG. 4B), respectively. […] Mitoxantrone was administered intravenously once at the beginning of the treatments at a dose of 2 mg/kg (FIG. 5A) or once a week for four weeks at a reduced dose of 0.8 mg/kg (FIG. 5B). All treatments were stopped at day 42 (FIG. 5A) or 38 (FIG. 5B), respectively. […] A2058 is a metastatic melanoma cell line. […] All treatments were stopped at day 24. […] Taxol was administered intravenously once a week at a dose of 10 mg/kg for three (FIG. 7A) or four weeks (FIG. 7C). Doxorubicin was administered intravenously once a week at a dose of 5 mg/kg for first three weeks (FIG. 7A) or for two weeks (FIG. 7C). All treatments were stopped at day 33 (FIG. 7A) or at day 26 (FIG. 7C), respectively. […] In FIG. 7C, antitumour activities were estimated by the inhibition of tumour volume, which was measured with calipers. Each point represents mean tumour volume calculated from 10 animals per experimental group. […] Taxol was administered intravenously once a week for first three weeks and intraperitoneally once a week for next two weeks at a dose of 10 mg/kg. Cisplatin was administered intravenously once a week for first three weeks and intraperitoneally once a week for next two weeks at a dose of 4 mg/kg. All treatments were stopped at day 40. Antitumour activities were estimated by the inhibition of tumour volume, which was measured with caliper. Each point represents mean tumour volume calculated from 9 animals per experimental group.

[5] = test system: HT-29 human colon cancer cells; conditions: SEQ ID NO:1 6 mg/kg i.v. every day, mitomycin C 3.5 mg/kg/week i.v.
Procedure: • 1.1 HT-29 human colon cancer cells (3×10^6 cells in 100 μl of PBS) were subcutaneously injected into the right flank of 6-7 weeks old female CD-1 nude mice. After the size of tumour reached an approximate volume of 50 mm^3, 4 days post tumour cell injection, mitomycin C was administered by bolus infusion into the tail vein at days 4, 11 and 18 with a dose of 3.5 mg/kg/week. […] SEQ ID NO:1 was administered by bolus infusion into the tail vein every day at 6 mg/kg and mitomycin C was administered intravenously at days 4, 11 and 18 with a dose of 3.5 mg/kg/week, one hour after the treatments with SEQ ID NO:1. Control animals received saline alone for the same period as SEQ ID NO:1. All treatments were stopped at day 22. A day after the last treatment, tumours were excised from the animals and their weights were measured.

HT29 tumour xenografts = HT29 tumour xenografts in CD-1 nude mice, methylated oligonucleotides; assay type: in vivo, human cells in mice; conditions: compared with SEQ ID NO:1
[6] = SCID mice (Example 7, FIG. 30), from day 40 every 3 days
[7] = SCID mice, stopped at day 42, sacrificed day 73, untreated all died within 23 days

Compound | Survival of mice [1, 6] | Survival of mice [1, 7] | Lung nodule formation / anti-metastatic activity (FIG. 31) [3] | Anti-tumour activity (FIG. 33) (HT29 tumour xenografts) | further results
5′-ACGCACTCAGCTAGTGACAC-3′ (listed as DNA, chemistry not given here) [SEQ ID NO:3, reference compound] | neither SEQ ID NO:3 nor SEQ ID NO:2 control ODNs prolonged survival | no observed efficacy | no anti-metastatic activity |  | Inhibitory effect on tumour growth (tumour volume, FIG. 20) [2]: did not differ from that in saline treated mice; Antitumour effect (tumour weight / volume, FIG. 7) [4]: no significant anti-tumour activity as a monotherapy; also recorded: does not cooperate with doxorubicin
5′-GGCTAAACTCGTCCACCAAG-3′ (listed as DNA, chemistry not given here) [SEQ ID NO:2, reference compound] | neither SEQ ID NO:3 nor SEQ ID NO:2 control ODNs prolonged survival | no observed efficacy | no anti-metastatic activity |  | 
CO[C@@]12[C@H](COC(N)=O)C3=C(C(=O)C(C)=C(N)C3=O)N1C[C@@H]1N[C@@H]12 [Mitomycin C, mitomycin C] |  |  |  |  | Tumour weight as % of saline control ([5]; HT-29 (colon), SCID mouse as printed): 15%; Antitumour effect (tumour weight, FIG. 1) ([5]; HT-29, CD-1 nude mice): significant delay of tumour growth compared to saline control
SEQ ID NO:4: SEQ ID NO:1 with methylation at the CpG (C9) (GGCTAAATCGCTCCACCAAG; [5mC] at 9, all phosphorothioate, sugars by position and methylation of C not given here) |  |  |  | does not abrogate the anti-tumour activity of SEQ ID NO:1; also recorded: measurable, but not significant, effect on the anti-tumour activity | 
SEQ ID NO:5: control oligonucleotide (met-11C) (GGCTAAATCGCTCCACCAAG; listed as DNA, chemistry not fully specified) [reference compound] |  |  |  | measurable, but not significant, effect on the anti-tumour activity | 
